This is an account of results in publication doi:10.1101/2021.02.13.431008v1 (biorxiv, 2021).

Molecules are shown by their SMILES.

In assay [1] the target is T1, SARS-CoV-2 PLpro (papain-like protease) (Severe acute respiratory syndrome coronavirus 2, UniProt P0DTD1). The following applies: binder.
Assay [2] deals with T1, SARS-CoV-2 PLpro (papain-like protease). The assay can be described thus: biochemical.

Take `Cc1ccc(NC2CNC2)cc1C(=O)N[C@H](C)c1cccc(-c2ccc(CNC3CCCC3)s2)c1` [XR8-23]: the “Ave kd” value in assay [1] came out at 0.124 s⁻¹.
`Cc1ccc(NC2CNC2)cc1C(=O)N[C@H](C)c1cccc2ccccc12` [ZN2-184]: the “Ave kd” value in assay [1] came to 0.349 s⁻¹.
On the same count and under the same terms, the figure for `Cc1ccc(NC2CNC2)cc1C(=O)N[C@H](C)c1cccc(-c2cccs2)c1` [ZN3-80] is 0.327 s⁻¹.
By IC50 is commonly meant the concentration that inhibits the measured activity by half. Read a high IC50 as a need for much substance. `CC(C)c1cc(C(C)C)c(CC(=O)NS(=O)(=O)Oc2c(C(C)C)cccc2C(C)C)c(C(C)C)c1` [avasimibe] returned an IC50 in assay [2] greater than 20 µM.
In assay [2], `CCOc1nc2cccc(C(=O)O)c2n1Cc1ccc(-c2ccccc2-c2nnn[nH]2)cc1` [candesartan] displayed an IC50 greater than 20 µM.
